Source: patent publication US8119808B2, “Tetrahydroquinoline derivatives as cannabinoid receptor modulators” (Bristol-Myers Squibb Company, priority 2003, dated 2012)

A melting point of 174 to 175 °C was found for N#Cc1ccc2c(c1)C[C@H](NS(=O)(=O)c1ccccc1)CN2C(=O)c1ccccc1 in this work.
